Earlier results, collected in paper PMC6906348 (Therapeutic Advances in Medical Oncology, 2019).
Where two headings read alike, the source gives them in different places.

What was measured:
[1] = system: patients progressing on or after sorafenib treatment (HCC); conditions: cited from earlier work
[2] = system: Asian patients with advanced HCC; conditions: cited from earlier work
[3] = system: patients with MET-high HCC; conditions: MET-high HCC defined by IHC ⩾2+ in ⩾50% of tumor cells; cited from earlier work
[4] = system: patients with unresectable advanced HCC; conditions: cited from earlier work
[5] = system: patients with unresectable advanced HCC; conditions: cited from earlier work; remark: listed apart in the source
[6] = system: patients with advanced HCC; conditions: cited from earlier work

For `CNC(=O)c1cc(Oc2ccc(NC(=O)Nc3ccc(Cl)c(C(F)(F)F)c3)c(F)c2)ccn1` [regorafenib], the overall response rate ([1]; versus 4% in the placebo arm) is given as 11% and the overall survival ([1]; versus 7.8 months for placebo) is given as 10.6 months.

For `CN1CCC(COc2cnc(-c3cccc(Cn4nc(-c5cccc(C#N)c5)ccc4=O)c3)nc2)CC1` [tepotinib], the “MET-positive patients with partial responses” value ([2]; MET-positive defined as ⩾50% tumor IHC 2+/3+) is listed as 2/7, the “patients with partial responses” value ([2]; unselected patients, 2/27) is listed as 7.4% and the disease control rate ([2]; unselected patients) is listed as 37%.

For `O=C1NC(=O)[C@@H](c2cn3c4c(cccc24)CCC3)[C@@H]1c1c[nH]c2ccccc12` [tivantinib], the study outcome [3] is listed as “negative”.

For `CNC(=O)c1cc(Oc2ccc(NC(=O)Nc3ccc(Cl)c(C(F)(F)F)c3)cc2)ccn1` [sorafenib], the “hazard ratio (HR), overall survival” value ([4]; sorafenib group versus placebo) is given as 0.69, the overall response rate ([4]; versus 1% for placebo) is given as 2% and the “median time to progression (TTP)” value ([4]; versus 2.8 months for placebo) is given as 5.5 months. For the same compound, the median overall survival ([4]; versus 7.9 months for placebo) was 10.7 months, the disease control rate ([4]; versus 32% for placebo) was 43% and the “HR, overall survival” value ([5]; sorafenib group versus placebo) was 0.68. For the same compound, the median overall survival ([5]; versus 4.2 months for placebo) was 6.5 months.

In the case of nivolumab, the overall response rate ([6]; all patients) is given as 20% and the overall response rate ([6]; sorafenib-treated patients) is given as 14%.
